For data set [1], the system named is Rattus norvegicus. Kind of data set: Antiinflammatory activity in Sprague-Dawley rat assessed as inhibition of carrageenan-induced paw edema at 50 mg/kg, ip treated 60 mins before carrageenan challenge measured after 180 mins. The data set is classed as functional. Conditions: route intraperitoneal. For orientation: Carrageenan injected into the paw causes an acute inflammation.

The test system of data set [2] is Rattus norvegicus. Kind of data set: Antiinflammatory activity in Sprague-Dawley rat assessed as inhibition of carrageenan-induced paw edema at 50 mg/kg, po treated 60 mins before carrageenan challenge measured after 180 mins. It counts as functional.
For data set [3], the system named is Rattus norvegicus. Kind of data set: Antiinflammatory activity in Sprague-Dawley rat assessed as inhibition of carrageenan-induced paw edema at 50 mg/kg, po treated 60 mins before carrageenan challenge measured after 90 mins. It counts as functional.
Data set [4] has as its system Rattus norvegicus. As to the kind of experiment: Antiinflammatory activity in Sprague-Dawley rat assessed as inhibition of carrageenan-induced paw edema at 50 mg/kg, ip treated 60 mins before carrageenan challenge measured after 90 mins. It counts as functional. The settings on record: route intraperitoneal.
The test system of data set [5] is Rattus norvegicus. Kind of data set: Toxicity in Sprague-Dawley rat assessed as gastrointestinal ulceration at 200 mg/kg, po once daily for 5 days. The data set is classed as organism-based. Set-up: dose 200 mg/kg, route oral. The settings on record: in vivo, 120 h.
Data set [6] can be described thus: Inhibition of PDE1.

Results on seven compounds are retold here after ChEMBL document CHEMBL1152602, “A new therapeutic approach in Parkinson's disease: some novel quinazoline derivatives as dual selective phosphodiesterase 1 inhibitors and anti-inflammatory agents” (Bioorg Med Chem, 2009).

For `COc1ccc(-c2csc3ncn4c(=O)c5ccccc5nc4c23)cc1`, the inhibition in vivo at 50 mg/kg with Rattus norvegicus [1] is 74%; with Rattus norvegicus [2] it was 71%; in the data set with Rattus norvegicus [3] it was 57%; in the data set on Rattus norvegicus [4], 69%. For the same compound, the Activity result in the data set on Rattus norvegicus [5] is “Non-toxic”. This compound also registered a concentration for half-maximal inhibition (IC50) in data set [6] of 66.9 µM.

Turning to `COc1ccc(-c2cc(-c3ccccc3)nc3ncn4c(=O)c5cc(Br)cc(Br)c5nc4c23)cc1`, the inhibition in vivo at 50 mg/kg in the data set with Rattus norvegicus [1] turned out to be 86%; in the data set on Rattus norvegicus [2], 82%; in the data set with Rattus norvegicus [3], 76%; in the data set on Rattus norvegicus [4] it was 78%. Further, the Activity entry in the data set on Rattus norvegicus [5] is listed as “Non-toxic”. In addition, the IC50 in data set [6] worked out at 33.7 µM.

For `Cc1ccc(-c2cc(-c3ccccc3)nc3ncn4c(=O)c5cc(Br)ccc5nc4c23)cc1`, the inhibition in vivo at 50 mg/kg with Rattus norvegicus [1] came out at 70%; in the data set on Rattus norvegicus [2], 68%; with Rattus norvegicus [3], 57%; in the data set with Rattus norvegicus [4] it was 60%. In addition, in the data set on Rattus norvegicus [5], the Activity result is “Non-toxic”. For the same compound, the IC50 in data set [6] came to 78.1 µM.

In the case of `O=c1c2ccccc2nc2c3c4c(sc3ncn12)CCCC4`, the inhibition in vivo at 50 mg/kg in the data set with Rattus norvegicus [1] was found to be 81%; in the data set with Rattus norvegicus [2] it was 75%; in the data set on Rattus norvegicus [3], 70%; in the data set on Rattus norvegicus [4], 71%. Further, the Activity entry in the data set on Rattus norvegicus [5] is “Non-toxic”. Also, in data set [6], the IC50 came out at 228 µM.

Take `Cc1ccc(-c2csc3ncn4c(=O)c5ccccc5nc4c23)cc1`: the inhibition in vivo at 50 mg/kg in the data set with Rattus norvegicus [1] is 68%; with Rattus norvegicus [2] it was 62%; in the data set on Rattus norvegicus [3] it was 48%; in the data set with Rattus norvegicus [4], 51%. Further, in the data set on Rattus norvegicus [5], the Activity entry was “Non-toxic”. Inhibition in data set [6] was half-maximal at 230 µM (IC50).

In the case of `Cc1sc2ncn3c(=O)c4ccccc4nc3c2c1C`, the inhibition in vivo at 50 mg/kg was 86% in the data set with Rattus norvegicus [1], 84% with Rattus norvegicus [2], 74% with Rattus norvegicus [3] and 76% in the data set on Rattus norvegicus [4]. Also, in the data set with Rattus norvegicus [5], the Activity result is “Non-toxic”. In data set [6], this compound had an IC50 of 295 µM.

In the case of `O=c1c2cc(Br)ccc2nc2c3c(-c4ccccc4)cc(-c4ccc(Cl)cc4)nc3ncn12`, the inhibition in vivo at 50 mg/kg with Rattus norvegicus [1] came out at 80%; with Rattus norvegicus [2] it was 77%; in the data set on Rattus norvegicus [3], 67%; with Rattus norvegicus [4] it was 69%. The Activity result in the data set with Rattus norvegicus [5] is reported as “Non-toxic”. Also, inhibition in data set [6] was half-maximal at 95.1 µM (IC50).

One may read the inhibition in vivo as the share of the control response that was lost under treatment. As a reminder, the IC50 is the point on the concentration scale where inhibition reaches its midpoint. The low end stands for inhibition by little substance, the high end for a need for much substance.
